From the supplement of paper PMC4862054

Legend:
Conditions in all cases: incubation time: 72 h
BT-474 = test: drug sensitivity score (DSS), CellTiter-Glo (DSS (AUC-based score)); higher = stronger drug effect (viability inhibition or cytotoxicity); extreme values may be limits of the assay
In short: (§1)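 In 384-well plates, compound was laid out at 5 concentrations in 10-fold steps over a 10,000-fold range specific to each compound, and breast cancer cell lines were seeded on top in 20 µl suspension for a 72 h incubation. CellTox Green fluorescence and then CellTiter-Glo luminescence were read, and each plate was normalised to 0.1 % DMSO and a positive kill control. The drug sensitivity score was calculated from the area under the fitted dose-response curve.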

SK-BR-3 [1] = test: as above
In short: as §1

CAL-51 [2] = test: as above
In short: as §1

DU-4475 [3] = test: as above
In short: as §1

HCC1599 = test: normalised response (% of control), CellTiter-Glo; higher = more viable cells (100 = DMSO, 0 = benzethonium chloride kill control)
In short: (§2)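 Breast cancer cell lines in 20 µl suspension were added to 384-well plates containing compound at 5 concentrations, spaced in 10-fold steps across a 10,000-fold range chosen for each compound, and incubated for 72 h. CellTox Green fluorescence was read at 485/520 nm, followed by CellTiter-Glo luminescence after 10 min at room temperature. Signals on each plate were normalised so that 0.1 % DMSO equals 100 and a positive kill control equals 0. Every value in the table is the normalised signal at one concentration of the series.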

HDQ-P1 [4] = test: as above
In short: as §2

SK-BR-3 [5] = test: as above
In short: as §2

MCF-10A = test: as above
In short: as §2

DU-4475 [6] = test: as above
In short: as §2

CAL-148 = test: normalised viability (% of control), CellTiter-Blue; higher = more viable cells (about 100 = DMSO control)
Experimental: (§3)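 DSRT, CellTiter-Blue viability, 72 h incubation. Signal is normalised to DMSO and benzethonium chloride controls. Value is the normalised response at dose 7.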

CAL-85-1 = test: as above
Experimental: as §3

HDQ-P1 [7] = test: as above
Experimental: as §3

CAL-51 [8] = test: as above
Experimental: as §3

MDA-MB-453 = test: as above
Experimental: as §3

DU-4475 [9] = test: as above
Experimental: as §3

SMILES | drug sensitivity score (BT-474) | drug sensitivity score (SK-BR-3 [1]) | drug sensitivity score (CAL-51 [2]) | drug sensitivity score (DU-4475 [3]) | normalised response (HCC1599) | normalised response (HDQ-P1 [4]) | normalised response (SK-BR-3 [5]) | normalised response (MCF-10A) | normalised response (DU-4475 [6]) | normalised viability (CAL-148) | normalised viability (CAL-85-1) | normalised viability (HDQ-P1 [7]) | normalised viability (CAL-51 [8]) | normalised viability (MDA-MB-453) | normalised viability (DU-4475 [9])
CCn1c(C(=O)N(C2CC2)C2CC2)cc2c3c(ncn3C)c(Nc3cc(C)n(C)n3)nc21 | 0 | 0 | 0 | 0 | – | – | – | – | – | – | – | – | – | – | –
COc1ccc(S(=O)(=O)Nc2cccnc2Nc2ccc(O)cc2)cc1 [ABT-751] (1000 nM) | – | – | – | – | 43.5% | 71.1% | 36.1% | 84.4% | 81.6% | 52.5% | 32.3% | 51.3% | 39.7% | 25.2% | 66.1%
CN[C@@H](C)C(=O)N[C@H]1CN(C(=O)CC(C)C)CC[C@H]2CC[C@@H](C(=O)NC(c3ccccc3)c3ccccc3)N2C1=O [AT-406] | 20.1 | 0 | 0 | 0 | – | – | – | – | – | – | – | – | – | – | –
Cc1cc(Nc2nc(N[C@@H](C)c3ncc(F)cn3)ncc2Cl)[nH]n1 [AZD1480] (100 nM) | – | – | – | – | 111% | 102% | 91.8% | 93.4% | 92.1% | 105% | 82.2% | 98.6% | 108% | 105% | 93.2%
CNC(=O)c1ccccc1Sc1ccc2c(/C=C/c3ccccn3)n[nH]c2c1 [Axitinib] (1000 nM) | – | – | – | – | 82% | 96.8% | 90.5% | 95% | 102% | 97.5% | 76.9% | 76.8% | 88.7% | 60.4% | 109%
CC(O)(CS(=O)(=O)c1ccc(F)cc1)C(=O)Nc1ccc(C#N)c(C(F)(F)F)c1 (stereo not drawn) [Bicalutamide] (1000 nM) | – | – | – | – | 120% | 108% | 109% | 110% | 99% | 102% | 91.1% | 91.4% | 108% | 102% | 90.1%
CCNC(=O)CCC/C=C\C[C@@H]1[C@@H](/C=C/[C@@H](O)CCc2ccccc2)[C@H](O)C[C@@H]1O [Bimatoprost] | 0 | 0 | 0 | 0 | – | – | – | – | – | – | – | – | – | – | –
CCNC(=O)CCC/C=C\C[C@@H]1[C@@H](/C=C/[C@@H](O)CCc2ccccc2)[C@H](O)C[C@@H]1O [Bimatoprost] (550 nM) | – | – | – | – | 105% | 95.4% | 88.7% | 102% | 98.3% | 95.9% | 94.2% | 93.3% | 118% | 91.1% | 104%
COc1cc(Nc2c(C#N)cnc3cc(OCCCN4CCN(C)CC4)c(OC)cc23)c(Cl)cc1Cl [Bosutinib] (1000 nM) | – | – | – | – | 86.8% | 51.2% | 97.1% | 34.5% | 99.8% | 72% | 81.9% | 89.2% | 109% | 80.3% | 109%
CCN(CC)CCCC(C)Nc1ccnc2cc(Cl)ccc12 (stereo not drawn) [Chloroquine] | 9.59 | 14.7 | 13.3 | 8.35 | – | – | – | – | – | – | – | – | – | – | –
CC1(COc2ccc3c(c2)ncn3-c2ccc3cccc(N4CCC(N)CC4)c3n2)COC1 [Crenolanib] | 4.44 | 4.21 | 6.45 | 4.23 | – | – | – | – | – | – | – | – | – | – | –
CC(C)(C)c1nc(-c2cccc(NS(=O)(=O)c3c(F)cccc3F)c2F)c(-c2ccnc(N)n2)s1 [Dabrafenib] | 0 | 0 | 0 | 19 | – | – | – | – | – | – | – | – | – | – | –
Cn1cc(C2=C(c3cn(C4CCN(Cc5ccccn5)CC4)c4ccccc34)C(=O)NC2=O)c2ccccc21 [Enzastaurin] (1000 nM) | – | – | – | – | 95.8% | 91.2% | 97.7% | 91.6% | 106% | 73% | 83.7% | 81.2% | 90.4% | 62.8% | 91.7%
Cc1nc(C(=O)NCC(=O)O)c(O)c2ccc(Oc3ccccc3)cc12 [FG-4592] | 0 | 0 | 0 | 0 | – | – | – | – | – | – | – | – | – | – | –
CC(C)(C)NC(=O)[C@H]1CC[C@H]2[C@@H]3CC[C@H]4NC(=O)C=C[C@]4(C)[C@H]3CC[C@]12C [Finasteride] (1000 nM) | – | – | – | – | 113% | 105% | 102% | 104% | 96.8% | 103% | 98.4% | 118% | 109% | 106% | 113%
Nc1ccn([C@@H]2O[C@H](CO)[C@@H](O)C2(F)F)c(=O)n1 [Gemcitabine] (100 nM) | – | – | – | – | 39% | 86% | 41.5% | 66.7% | 74.5% | 33.7% | 49.8% | 92.3% | 16.3% | 48.3% | 45.1%

SMILES | drug sensitivity score (BT-474) | drug sensitivity score (SK-BR-3 [1]) | drug sensitivity score (CAL-51 [2]) | drug sensitivity score (DU-4475 [3]) | normalised response (HCC1599) | normalised response (HDQ-P1 [4]) | normalised response (SK-BR-3 [5]) | normalised response (MCF-10A) | normalised response (DU-4475 [6]) | normalised viability (CAL-148) | normalised viability (CAL-85-1) | normalised viability (HDQ-P1 [7]) | normalised viability (CAL-51 [8]) | normalised viability (MDA-MB-453) | normalised viability (DU-4475 [9])
CC(C)C[C@H](NC(=O)[C@@H](COC(C)(C)C)NC(=O)[C@H](Cc1ccc(O)cc1)NC(=O)[C@H](CO)NC(=O)[C@H](Cc1c[nH]c2ccccc12)NC(=O)[C@H](Cc1cnc[nH]1)NC(=O)[C@@H]1CCC(=O)N1)C(=O)N[C@@H](CCCNC(=N)N)C(=O)N1CCC[C@H]1C(=O)NNC(N)=O [Goserelin] | 0 | 0 | 0 | 0 | – | – | – | – | – | – | – | – | – | – | –
CC(C)C[C@H](NC(=O)[C@@H](COC(C)(C)C)NC(=O)[C@H](Cc1ccc(O)cc1)NC(=O)[C@H](CO)NC(=O)[C@H](Cc1c[nH]c2ccccc12)NC(=O)[C@H](Cc1cnc[nH]1)NC(=O)[C@@H]1CCC(=O)N1)C(=O)N[C@@H](CCCNC(=N)N)C(=O)N1CCC[C@H]1C(=O)NNC(N)=O [Goserelin] (1000 nM) | – | – | – | – | 106% | 101% | 94.3% | 96.5% | 96.3% | 97.1% | 93.2% | 96.9% | 108% | 96% | 102%
O=C(O)CNC(=O)c1c(O)c2ccccc2n(Cc2ccccc2)c1=O [IOX-2] | 0 | 0 | 3.96 | 0 | – | – | – | – | – | – | – | – | – | – | –
CC(=O)[C@]1(O)Cc2c(O)c3c(c(O)c2[C@@H](O[C@H]2C[C@H](N)[C@H](O)[C@H](C)O2)C1)C(=O)c1ccccc1C3=O [Idarubicin] (100 nM) | – | – | – | – | 123% | 103% | 83.4% | 98.2% | 83.1% | 11.3% | 75.7% | 78.3% | 28% | 79.4% | 27.7%
C/C(=C\c1csc(C)n1)[C@@H]1C[C@@H]2O[C@]2(C)CCC[C@H](C)[C@H](O)[C@@H](C)C(=O)C(C)(C)[C@@H](O)CC(=O)N1 [Ixabepilone] (100 nM) | – | – | – | – | 103% | 100% | 106% | 110% | 102% | 86.5% | 80.5% | 78.1% | 108% | 78.5% | 93.7%
C=CCn1c(=O)c2cnc(Nc3ccc(N4CCN(C)CC4)cc3)nc2n1-c1cccc(C(C)(C)O)n1 [MK1775] (1000 nM) | – | – | – | – | 7.3% | 35.9% | 14.4% | 47.6% | 65.6% | 9.04% | 40.5% | 47.8% | 16.6% | 23.2% | 32.2%
CN(C)C(=N)NC(=N)N [Metformin] | 0 | 0 | 6.92 | 0 | – | – | – | – | – | – | – | – | – | – | –
CO[C@@H]1[C@H](N(C)C(=O)c2ccccc2)C[C@H]2O[C@]1(C)n1c3ccccc3c3c4c(c5c6ccccc6n2c5c31)C(=O)NC4 [Midostaurin] (1000 nM) | – | – | – | – | 94.5% | 65.1% | 61.4% | 27.8% | 51.5% | 82.2% | 81.1% | 52.8% | 14.5% | 67.9% | 8.53%
CO[C@@]12[C@H](COC(N)=O)C3=C(C(=O)C(C)=C(N)C3=O)N1C[C@@H]1N[C@@H]12 [Mitomycin C] (1000 nM) | – | – | – | – | 84.2% | 97% | 96.7% | 93% | 96.9% | 96.3% | 77.2% | 88.9% | 108% | 91.4% | 95.6%
CCNC(=O)c1noc(-c2cc(C(C)C)c(O)cc2O)c1-c1ccc(CN2CCOCC2)cc1 [NVP-AUY922] (100 nM) | – | – | – | – | 71% | 23.5% | 35.8% | 15.2% | 0.04% | 15.9% | 28.6% | 31.8% | 10.1% | 8.47% | 0.71%
CC1(C)CCC(c2ccc(Cl)cc2)=C(CN2CCN(c3ccc(C(=O)NS(=O)(=O)c4ccc(N[C@H](CCN5CCOCC5)CSc5ccccc5)c(S(=O)(=O)C(F)(F)F)c4)cc3)CC2)C1 [Navitoclax] (1000 nM) | – | – | – | – | 97.3% | 73% | 85.5% | 97.8% | 85.9% | 80.1% | 81.2% | 68.2% | 97.6% | 75.5% | 40.2%
CC[C@H](CO)Nc1nc(NCc2ccccc2)c2ncn(C(C)C)c2n1 [Seliciclib] | 0.844 | 0 | 2.74 | 0 | – | – | – | – | – | – | – | – | – | – | –
C=CCN(/C=C1/C(=O)O[C@H](COC)[C@@]2(C)C1=C(O)C(=O)C1=C2[C@H](OC(C)=O)C[C@]2(C)C(=O)CC[C@@H]12)CC=C [Sonolisib] | 0 | 0 | 4.2 | 0 | – | – | – | – | – | – | – | – | – | – | –
O=[N+]([O-])c1ccc2c(c1)S(=O)(=O)C=C2 [Stattic] | 9.26 | 8.62 | 18.1 | 5.46 | – | – | – | – | – | – | – | – | – | – | –
CC(C)n1cnc2c(NCCc3ccc(O)cc3)nc(-c3csc4ccccc34)nc21 [StemRegenin 1] | 0 | 0 | 0 | 0 | – | – | – | – | – | – | – | – | – | – | –
